“Also recorded” adds a separate entry of the source. Bridge positions count the residues as written; N and C are the ends. Peptide text beside a SMILES is read from it.
Legend:
rat ROMK = biological target: T1, rat ROMK (Rattus norvegicus, UniProt P35560); experiment: Whole-cell patch-clamp of ROMK currents in 208–4 cells; assay type: cell-based; conditions: for inhibition at 1 µM: n = 3–6, read-out: Activity (ROMK channel blocking activity, percentage of blockade at 1 μM)
T1 construct: expressed in transfected cells; host or cells: 293T cell line 208-4 (lentiviral transduction, GFP coexpressed)
T1 sequence (P35560 1-391): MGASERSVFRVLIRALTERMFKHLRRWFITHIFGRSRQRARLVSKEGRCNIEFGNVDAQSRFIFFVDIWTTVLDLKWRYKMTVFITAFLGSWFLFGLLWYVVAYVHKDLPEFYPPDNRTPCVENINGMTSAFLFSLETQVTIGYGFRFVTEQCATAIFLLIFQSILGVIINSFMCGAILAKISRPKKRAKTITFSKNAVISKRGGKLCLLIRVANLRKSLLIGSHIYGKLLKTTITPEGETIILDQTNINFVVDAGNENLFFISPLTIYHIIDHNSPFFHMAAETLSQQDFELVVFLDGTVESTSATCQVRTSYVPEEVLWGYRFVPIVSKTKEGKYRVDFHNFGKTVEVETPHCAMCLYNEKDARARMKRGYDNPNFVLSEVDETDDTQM
Summary of the method: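 ROMK stably expressed in 208–4 cells; GIRK transiently in 293T, recorded 24 h post-transfection; 25°C, Tyrode (high-K+ 50 mM for GIRK), K-aspartate/KCl pipette with 3 mM MgATP. Steps −150 to 10 mV from −70 mV; currents 60 s after peptide; conductance from I-V slope −140 to −100 mV, Ba2+-resistant current subtracted, normalized to 0 μM TPN.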

Male ICR mice [1] = experiment: Tail suspension test (TST); assay type: in vivo, mouse
Method: We performed mouse behavioral experiments in accordance with our previous study. Male ICR mice (n = 199 in total) aged 5 weeks old were purchased from Shimizu Laboratory Supplies (Kyoto, Japan) and maintained in an animal facility for 7–12 days. They had free access to food and water and were kept in a 12-h light/dark cycle (08:00–20:00). Experiments were carried out between 11:00 and 17:00 in a quiet and air-conditioned experimental room, to which mice were habituated for 30–60 min before each experiment. Animal experiments were performed in accordance with the guidelines of the Physiological Society of Japan and were approved by the Committee for Animal Experiments of Kurashiki University of Science and the Arts. Peptides were dissolved in phosphate-buffered saline (PBS). Peptides were injected intracerebroventricularly (i.c.v.) 30 min before behavioral tests (typically 5 μL/mouse), according to a previous study. The mouse was placed into an anesthetizing jar, to which isoflurane (0.2 mL) was added immediately before. After confirming that the mouse was deeply anesthetized we injected the peptide into the right cerebral ventricle over 30 seconds and the injection needle was kept for 1 min after the injection (i.c.v. coordinates: 0 mm caudal to bregma, 1.0 mm lateral to the midline, and 3.5 mm below the skull). The mouse was placed in a cage set on a heating pad (approximately 33°C) for a few minutes until it spontaneously started to move, and then it was put back into its home cage. Each animal was used only once, except for the wheel running test, which was carried out immediately after the elevated plus-maze.
The tail suspension test (TST) was performed in accordance with the method reported previously. The mouse was hung on a hook using adhesive tape placed 2 cm from the extremity of its tail 50 cm above a table. The amount of time spent immobile was recorded for 5 min.

Male ICR mice [2] = experiment: Forced swim test (FST); assay type: in vivo, mouse; conditions: i.c.v., 30 min before test, last 4 min of 6 min
Method: We performed mouse behavioral experiments in accordance with our previous study. Male ICR mice (n = 199 in total) aged 5 weeks old were purchased from Shimizu Laboratory Supplies (Kyoto, Japan) and maintained in an animal facility for 7–12 days. They had free access to food and water and were kept in a 12-h light/dark cycle (08:00–20:00). Experiments were carried out between 11:00 and 17:00 in a quiet and air-conditioned experimental room, to which mice were habituated for 30–60 min before each experiment. Animal experiments were performed in accordance with the guidelines of the Physiological Society of Japan and were approved by the Committee for Animal Experiments of Kurashiki University of Science and the Arts. Peptides were dissolved in phosphate-buffered saline (PBS). Peptides were injected intracerebroventricularly (i.c.v.) 30 min before behavioral tests (typically 5 μL/mouse), according to a previous study. The mouse was placed into an anesthetizing jar, to which isoflurane (0.2 mL) was added immediately before. […]
The forced swim test (FST) was performed in accordance with the method reported previously. […] The mouse was allowed to swim for 6 min and its activity was measured. […]

[3] = blockade at 1 μM estimated from fitted Hill curve (four parameters), whole-cell conductance

TPN-RQ(C3S) [Peptide 45]
Activity (ROMK channel blocking activity, percentage of blockade at 1 μM) (rat ROMK; blockade at 1 μM estimated from fitted Hill curve (four parameters), whole-cell conductance, n = 3–6): - (-, <20%) | ROMK blocking activity (in words) (rat ROMK; whole-cell recordings, listed as TPN-C3S): little blocking activity; also recorded: scarcely blocked the channel | immobile time in TST (Male ICR mice [1]; 750 pmole i.c.v., 30 min before test, 5 min recording): decreased the immobile time insignificantly | immobile time in FST (Male ICR mice [2]): decreased the immobile time insignificantly

O=[N+]([O-])c1ccc2nc(COCc3nc4ccc([N+](=O)[O-])cc4[nH]3)[nH]c2c1 [VU591]
immobile time in TST (Male ICR mice [1]; i.c.v., 5 μL of 20 mM in dimethyl sulfoxide, n = 4 and 5): significantly decreased the immobile time

CC[C@H](C)[C@@H]1NC(=O)[C@H](CCCNC(=N)N)NC(=O)[C@H](CCCNC(=N)N)NC(=O)[C@H](CC(N)=O)NC(=O)[C@@H]2CSSC[C@@H](C(=O)NCC(=O)N[C@@H](CCCCN)C(=O)N[C@@H](CCCCN)C(N)=O)NC(=O)[C@H](CCCCN)NC(=O)[C@H](CCCCN)NC(=O)[C@H](C)NC(=O)[C@H](CSSC[C@H](NC(=O)[C@H](CC(C)C)NC(=O)[C@H](C)N)C(=O)N[C@@H](CC(N)=O)C(=O)N2)NC(=O)[C@H](CCC(N)=O)NC(=O)[C@H](Cc2c[nH]cn2)NC(=O)[C@@H]2CCCN2C(=O)[C@H]([C@@H](C)CC)NC1=O [Peptide 65, TPN-RQ(W15A)] (H-ALCNCNRRIIPHQCAKKCGKK-NH2; disulfide 3-14, 5-18)
inhibition at 1 µM (rat ROMK; [3]): 20 to 40%

CC[C@H](C)[C@@H]1NC(=O)[C@H](CCCNC(=N)N)NC(=O)[C@H](CCCNC(=N)N)NC(=O)[C@H](CC(N)=O)NC(=O)[C@H](CO)NC(=O)[C@H](CC(N)=O)NC(=O)[C@@H](N)CSSC[C@@H](C(=O)N[C@@H](Cc2c[nH]c3ccccc23)C(=O)N[C@@H](CCCCN)C(N)=O)NC(=O)[C@H](CCC(N)=O)NC(=O)[C@H](CCCCN)NC(=O)[C@@H]2CCCN2C(=O)[C@H]([C@@H](C)CC)NC1=O [Peptide 42, TPN-RQ 3-16(C5S/H12K)] (H-CNSNRRIIPKQCWK-NH2; disulfide 1-12)
inhibition at 1 µM (rat ROMK; [3]): < 20%
